According to US20200325543A1, “DIAGNOSTIC METHOD” (TOLREMO THERAPEUTICS AG, priority 2017, published 2020):
Values joined by “and” are separate entries in the source; they are usually repeats but may differ in a detail not shown here. Identical values can stand only once. Counter-ions that a name gives are not always drawn. Like-named read-outs stand apart in the source and are kept apart here.

Test system: SOX2
Assay: Screen of a library of FDA-approved drugs for SOX2 antibody staining in A375 cells treated with PLX4720 and AZD6244
Conditions: for cor. loess: normalized and geometry-corrected (loess) signal; for norm: signal after plate normalization
[1] = A375 cells, 5 uM test drug with 1 uM PLX4720 and 0.5 uM AZD6244, 24 h
[2] = A375 cells, 5 uM test drug with 1 uM PLX4720 and 0.5 uM AZD6244, 24 h, raw signal (ratio of FL2 SOX2 antibody and FL3 nuclear staining), screen run in duplicate
[3] = Z-test against negative controls (DMSO), single dose 5 uM

CC1(C)O[C@@H]2C[C@H]3[C@@H]4C[C@H](F)C5=CC(=O)C=C[C@]5(C)[C@H]4[C@@H](O)C[C@]3(C)[C@]2(C(=O)CO)O1 [FLUNISOLIDE]
cor. loess [1]: 0.6279 | raw [2]: 0.9737 | norm [1]: 0.6807 | z [3]: 5.388

CC1(C)O[C@@H]2C[C@H]3[C@@H]4C[C@H](F)C5=CC(=O)C=C[C@]5(C)[C@@]4(F)[C@@H](O)C[C@]3(C)[C@]2(C(=O)CO)O1 [FLUOCINOLONE ACETONIDE]
cor. loess [1]: 0.4202 | raw [2]: 0.9791 | norm [1]: 0.434 | z [3]: 3.463

CC(=O)OCC(=O)[C@@]12OC(C)(C)O[C@@H]1C[C@H]1[C@@H]3C[C@H](F)C4=CC(=O)C=C[C@]4(C)[C@@]3(F)[C@@H](O)C[C@@]12C [FLUOCINONIDE]
cor. loess [1]: 0.4293 | raw [2]: 0.9797 | norm [1]: 0.4123 | z [3]: 3.538

CCC(=O)O[C@]1(C(=O)SCF)[C@H](C)C[C@H]2[C@@H]3C[C@H](F)C4=CC(=O)C=C[C@]4(C)[C@@]3(F)[C@@H](O)C[C@@]21C [FLUTICASONE PROPIONATE]
cor. loess [1]: 0.6875 | raw [2]: 0.9704 | norm [1]: 0.713 | z [3]: 4.067

C[C@]12CCC(=O)C(O)=C1CC[C@@H]1[C@@H]2CC[C@]2(C)C(=O)CC[C@@H]12 [FORMESTANE]
cor. loess [1]: 0.4179 | raw [2]: 0.98 | norm [1]: 0.3818 | z [3]: 4.633

COc1ccc(/C=C\c2cc(OC)c(OC)c(OC)c2)cc1OP(=O)([O-])[O-].[Na+].[Na+] [Fosbretabulin (Combretastatin A4 Phosphate (CA4P)) Disodium]
cor. loess [1]: 0.3981 | raw [2]: 0.9814 | norm [1]: 0.3844 | z [3]: 4.256

CN(C)c1ccc(C(=C2C=CC(=[N+](C)C)C=C2)c2ccc(N(C)C)cc2)cc1 [GENTIAN VIOLET]
cor. loess [1]: 1.077 | raw [2]: 0.9601 | norm [1]: 1.09 | z [3]: 8.875

CC1(C)O[C@@H]2C[C@H]3[C@@H]4CCC5=CC(=O)CC[C@]5(C)[C@@]4(F)[C@@H](O)C[C@]3(C)[C@]2(C(=O)CCl)O1 [HALCINONIDE]
cor. loess [1]: 0.2632 | raw [2]: 0.9853 | norm [1]: 0.2586 | z [3]: 3.581

CCCCC(CC)CN1CN(CC(CC)CCCC)CC(C)(N)C1 (stereo not drawn) [HEXETIDINE]
cor. loess [1]: 0.3155 | raw [2]: 0.9834 | norm [1]: 0.2651 | z [3]: 3.497

CCC(=O)O[C@]1(C(=O)CCl)[C@@H](C)C[C@H]2[C@@H]3C[C@H](F)C4=CC(=O)C=C[C@]4(C)[C@@]3(F)[C@@H](O)C[C@@]21C [Halobetasol Propionate]
cor. loess [1]: 0.4055 | raw [2]: 0.9809 | norm [1]: 0.3998 | z [3]: 4.335

COC(=O)C[C@](O)(CCCC(C)(C)O)C(=O)O[C@@H]1C(OC)=C[C@]23CCCN2CCc2cc4c(cc2[C@H]13)OCO4 [Homoharringtonine]
cor. loess [1]: 1.181 | raw [2]: 0.9576 | norm [1]: 1.161 | z [3]: 8.354

O=c1[nH]c(=O)n([C@H]2C[C@H](O)[C@@H](CO)O2)cc1I [IDOXURIDINE]
cor. loess [1]: 0.715 | raw [2]: 0.9726 | norm [1]: 0.7167 | z [3]: 6.136

CC(C)Oc1ccc2c(=O)c(-c3ccccc3)coc2c1 [IPRIFLAVONE]
cor. loess [1]: 0.3885 | raw [2]: 0.9807 | norm [1]: 0.3563 | z [3]: 4.307

CC(=O)O[C@H]1C[C@H](O[C@H]2[C@@H](O)C[C@H](O[C@H]3[C@@H](O)C[C@H](O[C@H]4CC[C@@]5(C)[C@H](CC[C@@H]6[C@@H]5C[C@@H](O)[C@]5(C)[C@@H](C7=CC(=O)OC7)CC[C@]65O)C4)O[C@@H]3C)O[C@@H]2C)O[C@H](C)[C@H]1O[C@@H]1O[C@H](CO)[C@@H](O)[C@H](O)[C@H]1O [LANATOSIDE C]
cor. loess [1]: 1.074 and 1.059 | raw [2]: 0.9723 and 0.963 | norm [1]: 0.4949

Cc1c(OCC(F)(F)F)ccnc1C[S+]([O-])c1nc2ccccc2[nH]1 (stereo not drawn) [LANSOPRAZOLE]
cor. loess [1]: 0.2732 | raw [2]: 0.9819 | norm [1]: 0.3712 | z [3]: 3.717

Cc1cc(Nc2ncc(Cl)c(Nc3ccccc3S(=O)(=O)C(C)C)n2)c(OC(C)C)cc1C1CCNCC1 [LDK378]
cor. loess [1]: 3.065 | raw [2]: 0.8857 | norm [1]: 3.411 | z [3]: 23.92

Cc1oncc1C(=O)Nc1ccc(C(F)(F)F)cc1 [LEFLUNOMIDE]
cor. loess [1]: 0.3194 | raw [2]: 0.9816 | norm [1]: 0.3831 | z [3]: 4.346

CCN1CCN(Cc2ccc(Nc3ncc(F)c(-c4cc(F)c5nc(C)n(C(C)C)c5c4)n3)nc2)CC1 [LY2835219]
cor. loess [1]: 1.234 | raw [2]: 0.963 | norm [1]: 1.024 | z [3]: 4.755

CN1C[C@H](CNC(=O)OCc2ccccc2)C[C@@H]2c3cccc4c3c(cn4C)C[C@H]21 [METERGOUNE]
cor. loess [1]: 0.4209 | raw [2]: 0.9793 | norm [1]: 0.4023 | z [3]: 4.666

Cc1cc(C(C)(C)CC(C)(C)C)ccc1OCCOCC[N+](C)(C)Cc1ccccc1.[Cl-] [METHYLBENZETHONIUM CHLORIDE]
cor. loess [1]: 0.2976 | raw [2]: 0.9826 | norm [1]: 0.3484 | z [3]: 4.049

CN(C)c1ccc2nc3ccc(=[N+](C)C)cc-3sc2c1 [METHYLENE BLUE]
cor. loess [1]: 0.5193 | raw [2]: 0.9751 | norm [1]: 0.5531 | z [3]: 3.072

C[C@H]1C[C@@H]2[C@H]([C@@H](O)C[C@@]3(C)[C@H]2CC[C@]3(O)C(=O)COC(=O)CCC(=O)O)[C@@]2(C)C=CC(=O)C=C12 [METHYLPREDNISOLONE SODIUM SUCCINATE]
cor. loess [1]: 0.4008 | raw [2]: 0.9806 | norm [1]: 0.4166 | z [3]: 5.452

O=C(Nc1ccc([N+](=O)[O-])cc1Cl)c1cc(Cl)ccc1O [NICLOSAMIDE]
cor. loess [1]: 0.7224 | raw [2]: 0.97 | norm [1]: 0.7648 | z [3]: 9.828

COC(=O)Nc1nc2ccc(C(=O)c3cccs3)cc2[nH]1 [NOCODAZOLE]
cor. loess [1]: 0.5311 | raw [2]: 0.9766 | norm [1]: 0.5009 | z [3]: 3.142

CC(=O)c1cc2c(o1)C(=O)c1ccccc1C2=O [Napabucasin]
cor. loess [1]: 0.8204 | raw [2]: 0.9658 | norm [1]: 0.8869 | z [3]: 6.402

CCOc1cc2ncc(C#N)c(Nc3ccc(OCc4ccccn4)c(Cl)c3)c2cc1NC(=O)/C=C/CN(C)C [Neratinib (HKI-272), Neratinib]
cor. loess [1]: 4.182 | raw [2]: 0.9044 | norm [1]: 4.156 | z [3]: 16.11

COC(=O)c1ccc2c(c1)NC(=O)/C2=C(\Nc1ccc(N(C)C(=O)CN2CCN(C)CC2)cc1)c1ccccc1 [Nintedanib (BIBF 1120), Nintedanib]
cor. loess [1]: 0.5485 | raw [2]: 0.9744 | norm [1]: 0.6171 | z [3]: 4.28

CCCOc1ccc2nc(NC(=O)OC)[nH]c2c1 [OXIBENDAZOLE]
cor. loess [1]: 0.4781 | raw [2]: 0.9763 | norm [1]: 0.5578 | z [3]: 6.505

CCNC1(C(N)=O)CCN(c2ncnc3c2nc(-c2ccccc2Cl)n3-c2ccc(Cl)cc2)CC1 [Otenabant (CP-945598) HCl]
cor. loess [1]: 1.069 | raw [2]: 0.9665 | norm [1]: 0.8357 | z [3]: 4.116

CC(=O)O[C@H]1C(=O)[C@@]2(C)[C@H]([C@H](OC(=O)c3ccccc3)[C@]3(O)C[C@H](OC(=O)[C@H](O)[C@@H](NC(=O)c4ccccc4)c4ccccc4)C(C)=C1C3(C)C)[C@]1(OC(C)=O)CO[C@@H]1C[C@@H]2O [PACLITAXEL]
cor. loess [1]: 0.341 | raw [2]: 0.9826 | norm [1]: 0.3501 | z [3]: 4.64

OC1(c2ccc(Cl)c(C(F)(F)F)c2)CCN(CCCC(c2ccc(F)cc2)c2ccc(F)cc2)CC1 [PENFLURIDOL]
cor. loess [1]: 2.248 | raw [2]: 0.9179 | norm [1]: 2.491 | z [3]: 30.59

C1CCC(C(CC2CCCCN2)C2CCCCC2)CC1 (stereo not drawn) [PERHEXILINE MALEATE]
cor. loess [1]: 0.3464 | raw [2]: 0.9786 | norm [1]: 0.4809 | z [3]: 4.713

CCOC(=O)O[C@]1(C(=O)COC(=O)CC)CC[C@H]2[C@@H]3CCC4=CC(=O)C=C[C@]4(C)[C@H]3[C@@H](O)C[C@@]21C [PREDNICARBATE]
cor. loess [1]: 0.3992 | raw [2]: 0.9782 | norm [1]: 0.4403 | z [3]: 4.425

CC(=O)OCC(=O)[C@@]1(O)CC[C@H]2[C@@H]3CCC4=CC(=O)C=C[C@]4(C)[C@H]3[C@@H](O)C[C@@]21C [PREDNISOLONE ACETATE]
cor. loess [1]: 0.4697 | raw [2]: 0.9772 | norm [1]: 0.4997 | z [3]: 3.871

Nc1ccc2cc3ccc(N)cc3nc2c1 [PROFLAVINE HEMISULFATE]
cor. loess [1]: 0.3381 | raw [2]: 0.9828 | norm [1]: 0.2862 | z [3]: 3.749

C[C@@H]1O[C@@H](O[C@@H]2C=C3CC[C@@H]4[C@H](CC[C@]5(C)[C@@H](c6ccc(=O)oc6)CC[C@]45O)[C@@]3(C)CC2)[C@H](O)[C@H](O)[C@H]1O [PROSCILLARIDIN A]
cor. loess [1]: 0.5083 | raw [2]: 0.9787 | norm [1]: 0.4294 | z [3]: 3.007

[O-][n+]1ccccc1[S-].[O-][n+]1ccccc1[S-].[Zn+2] [PYRITHIONE ZINC]
raw: 0.8268 and 0.898 | z: 15.67 and 26.13

CCOc1cc2ncc(C#N)c(Nc3ccc(F)c(Cl)c3)c2cc1NC(=O)/C=C/CN(C)C [Pelitinib (EKB-569), Pelitinib]
cor. loess [1]: 0.7376 | raw [2]: 0.9677 | norm [1]: 0.828 | z [3]: 5.755

CC(C)COc1ccc(CNC(=O)N(Cc2ccc(F)cc2)C2CCN(C)CC2)cc1 [Pimavanserin]
cor. loess [1]: 0.7376 | raw [2]: 0.9689 | norm [1]: 0.7906 | z [3]: 5.755
